According to ChEMBL document CHEMBL5715260, “Selectivity Literature for EUbOPEN Chemogenomic Library” (2024):
Where a SMILES comes first, the peptide text is derived from it. [ ]: non-standard residue; d: D form. The star is where a group is joined. Benzoyl(4-OPh) = O=C(c1ccc(Oc2ccccc2)cc1)*; Lys(Et2) = CCN(CC)CCCC[C@H](N)C(=O)O; d(aIle) = CC[C@H](C)[C@@H](N)C(=O)O; Gly(cPent) = N[C@H](C(=O)O)C1CCCC1; NH(propargyl) = C#CCN*

How the values were obtained:
[1] = molecular target: T1, Chromobox protein homolog 2 (Homo sapiens, UniProt Q14781); assay: (§1) Selectivity interaction (Fluorescence polarisation assay (chromodomain family)) EUB0002326a CBX2; design: recommended concentration 1 uM
T1 sequence (Q14781 whole entry): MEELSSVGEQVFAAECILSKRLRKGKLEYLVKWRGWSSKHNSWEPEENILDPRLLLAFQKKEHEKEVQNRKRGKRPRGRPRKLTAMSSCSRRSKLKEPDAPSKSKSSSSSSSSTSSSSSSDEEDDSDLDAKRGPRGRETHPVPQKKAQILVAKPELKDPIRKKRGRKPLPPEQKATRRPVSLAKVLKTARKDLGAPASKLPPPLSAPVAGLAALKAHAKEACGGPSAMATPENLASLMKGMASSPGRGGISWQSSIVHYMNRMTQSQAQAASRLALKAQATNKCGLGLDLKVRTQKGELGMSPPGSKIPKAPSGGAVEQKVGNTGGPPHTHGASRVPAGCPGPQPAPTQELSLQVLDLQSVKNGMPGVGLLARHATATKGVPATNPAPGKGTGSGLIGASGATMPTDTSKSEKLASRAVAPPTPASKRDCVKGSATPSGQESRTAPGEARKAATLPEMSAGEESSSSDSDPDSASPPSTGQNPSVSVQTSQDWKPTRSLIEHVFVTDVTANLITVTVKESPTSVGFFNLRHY

[2] = molecular target: T1, Chromobox protein homolog 2; assay: as §1; design: recommended concentration 1 uM; remark: listed apart in the source
[3] = molecular target: Chromobox protein homolog 7 (Homo sapiens, UniProt O95931); assay: Selectivity interaction (Fluorescence polarisation assay (chromodomain family)) EUB0002326a CBX7; design: recommended concentration 1 uM
[4] = molecular target: Cathepsin S (Homo sapiens, UniProt P25774); assay: Selectivity interaction (Enzymatic assay) EUB0002529a CTSS; design: recommended concentration 1 uM
Sequence of Cathepsin S (P25774 whole entry): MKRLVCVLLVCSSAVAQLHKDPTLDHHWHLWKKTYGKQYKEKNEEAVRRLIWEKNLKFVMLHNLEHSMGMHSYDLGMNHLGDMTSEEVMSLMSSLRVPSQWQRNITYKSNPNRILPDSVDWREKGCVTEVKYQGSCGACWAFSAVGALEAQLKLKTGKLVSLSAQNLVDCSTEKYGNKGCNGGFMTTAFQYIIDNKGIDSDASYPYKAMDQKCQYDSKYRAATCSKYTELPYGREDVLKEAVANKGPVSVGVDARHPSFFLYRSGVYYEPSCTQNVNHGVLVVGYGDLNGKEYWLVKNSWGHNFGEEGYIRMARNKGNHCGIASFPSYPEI

[5] = molecular target: T2, Delta-type opioid receptor (Homo sapiens, UniProt P41143); assay: (§2) Selectivity interaction (Panel of neurotransmitter receptors, receptors, ion channels/regulatory sites) EUB0002781aCl OPRD1; design: recommended concentration 1 uM
T2 sequence (P41143 whole entry): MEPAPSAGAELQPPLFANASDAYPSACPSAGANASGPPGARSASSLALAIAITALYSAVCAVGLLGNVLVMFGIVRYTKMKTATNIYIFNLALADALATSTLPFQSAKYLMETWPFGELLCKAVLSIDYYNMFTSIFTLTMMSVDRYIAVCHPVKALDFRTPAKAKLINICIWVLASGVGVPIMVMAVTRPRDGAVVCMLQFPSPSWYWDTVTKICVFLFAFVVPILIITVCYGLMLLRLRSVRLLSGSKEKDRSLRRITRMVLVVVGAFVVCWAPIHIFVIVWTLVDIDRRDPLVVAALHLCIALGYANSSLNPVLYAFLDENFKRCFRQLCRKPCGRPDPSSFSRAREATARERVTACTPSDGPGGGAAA

[6] = molecular target: T3, Mu-type opioid receptor (Homo sapiens, UniProt P35372); assay: (§3) Selectivity interaction (Panel of neurotransmitter receptors, receptors, ion channels/regulatory sites) EUB0002781aCl OPRM1; design: recommended concentration 1 uM
T3 sequence (P35372 whole entry): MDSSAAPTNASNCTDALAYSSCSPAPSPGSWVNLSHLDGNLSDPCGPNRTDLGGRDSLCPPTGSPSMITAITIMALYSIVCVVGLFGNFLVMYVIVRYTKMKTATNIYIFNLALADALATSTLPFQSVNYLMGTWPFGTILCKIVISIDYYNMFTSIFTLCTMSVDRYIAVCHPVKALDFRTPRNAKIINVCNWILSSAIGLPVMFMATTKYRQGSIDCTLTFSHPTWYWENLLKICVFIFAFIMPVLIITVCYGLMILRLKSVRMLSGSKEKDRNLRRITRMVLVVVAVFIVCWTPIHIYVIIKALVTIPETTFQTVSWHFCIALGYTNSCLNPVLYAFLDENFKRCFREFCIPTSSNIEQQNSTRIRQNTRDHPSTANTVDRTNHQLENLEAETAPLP

[7] = molecular target: T3, Mu-type opioid receptor; assay: as §3; design: recommended concentration 1 uM; remark: listed apart in the source
[8] = molecular target: T2, Delta-type opioid receptor; assay: as §2; design: recommended concentration 1 uM; remark: listed apart in the source
[9] = molecular target: Kappa-type opioid receptor (Homo sapiens, UniProt P41145); assay: Selectivity interaction (Panel of neurotransmitter receptors, receptors, ion channels/regulatory sites) EUB0002781aCl OPRK1; design: recommended concentration 1 uM
Sequence of Kappa-type opioid receptor (P41145 whole entry): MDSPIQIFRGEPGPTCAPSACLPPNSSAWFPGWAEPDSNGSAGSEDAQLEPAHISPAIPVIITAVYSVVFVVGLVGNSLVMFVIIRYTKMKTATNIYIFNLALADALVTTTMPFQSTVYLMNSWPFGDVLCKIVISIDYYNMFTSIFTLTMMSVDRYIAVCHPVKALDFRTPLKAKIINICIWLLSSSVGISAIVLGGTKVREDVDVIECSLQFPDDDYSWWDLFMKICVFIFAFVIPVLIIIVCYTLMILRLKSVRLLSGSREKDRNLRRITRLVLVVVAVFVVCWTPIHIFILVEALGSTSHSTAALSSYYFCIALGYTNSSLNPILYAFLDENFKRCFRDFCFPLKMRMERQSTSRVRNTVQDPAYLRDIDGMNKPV

[10] = molecular target: Voltage-dependent L-type calcium channel subunit alpha-1S (Homo sapiens) (UniProt Q13698); assay: Selectivity interaction (Panel of neurotransmitter receptors, receptors, ion channels/regulatory sites) EUB0002781aCl CACNA1S; design: recommended concentration 1 uM; settings: at 10 µM
[11] = molecular target: T4, Histone acetyltransferase p300 (Homo sapiens, UniProt Q09472); assay: (§4) Selectivity interaction (BROMOscan (DiscoverX)) EUB0002298a EP300; design: recommended concentration 1 uM
T4 sequence (Q09472 whole entry): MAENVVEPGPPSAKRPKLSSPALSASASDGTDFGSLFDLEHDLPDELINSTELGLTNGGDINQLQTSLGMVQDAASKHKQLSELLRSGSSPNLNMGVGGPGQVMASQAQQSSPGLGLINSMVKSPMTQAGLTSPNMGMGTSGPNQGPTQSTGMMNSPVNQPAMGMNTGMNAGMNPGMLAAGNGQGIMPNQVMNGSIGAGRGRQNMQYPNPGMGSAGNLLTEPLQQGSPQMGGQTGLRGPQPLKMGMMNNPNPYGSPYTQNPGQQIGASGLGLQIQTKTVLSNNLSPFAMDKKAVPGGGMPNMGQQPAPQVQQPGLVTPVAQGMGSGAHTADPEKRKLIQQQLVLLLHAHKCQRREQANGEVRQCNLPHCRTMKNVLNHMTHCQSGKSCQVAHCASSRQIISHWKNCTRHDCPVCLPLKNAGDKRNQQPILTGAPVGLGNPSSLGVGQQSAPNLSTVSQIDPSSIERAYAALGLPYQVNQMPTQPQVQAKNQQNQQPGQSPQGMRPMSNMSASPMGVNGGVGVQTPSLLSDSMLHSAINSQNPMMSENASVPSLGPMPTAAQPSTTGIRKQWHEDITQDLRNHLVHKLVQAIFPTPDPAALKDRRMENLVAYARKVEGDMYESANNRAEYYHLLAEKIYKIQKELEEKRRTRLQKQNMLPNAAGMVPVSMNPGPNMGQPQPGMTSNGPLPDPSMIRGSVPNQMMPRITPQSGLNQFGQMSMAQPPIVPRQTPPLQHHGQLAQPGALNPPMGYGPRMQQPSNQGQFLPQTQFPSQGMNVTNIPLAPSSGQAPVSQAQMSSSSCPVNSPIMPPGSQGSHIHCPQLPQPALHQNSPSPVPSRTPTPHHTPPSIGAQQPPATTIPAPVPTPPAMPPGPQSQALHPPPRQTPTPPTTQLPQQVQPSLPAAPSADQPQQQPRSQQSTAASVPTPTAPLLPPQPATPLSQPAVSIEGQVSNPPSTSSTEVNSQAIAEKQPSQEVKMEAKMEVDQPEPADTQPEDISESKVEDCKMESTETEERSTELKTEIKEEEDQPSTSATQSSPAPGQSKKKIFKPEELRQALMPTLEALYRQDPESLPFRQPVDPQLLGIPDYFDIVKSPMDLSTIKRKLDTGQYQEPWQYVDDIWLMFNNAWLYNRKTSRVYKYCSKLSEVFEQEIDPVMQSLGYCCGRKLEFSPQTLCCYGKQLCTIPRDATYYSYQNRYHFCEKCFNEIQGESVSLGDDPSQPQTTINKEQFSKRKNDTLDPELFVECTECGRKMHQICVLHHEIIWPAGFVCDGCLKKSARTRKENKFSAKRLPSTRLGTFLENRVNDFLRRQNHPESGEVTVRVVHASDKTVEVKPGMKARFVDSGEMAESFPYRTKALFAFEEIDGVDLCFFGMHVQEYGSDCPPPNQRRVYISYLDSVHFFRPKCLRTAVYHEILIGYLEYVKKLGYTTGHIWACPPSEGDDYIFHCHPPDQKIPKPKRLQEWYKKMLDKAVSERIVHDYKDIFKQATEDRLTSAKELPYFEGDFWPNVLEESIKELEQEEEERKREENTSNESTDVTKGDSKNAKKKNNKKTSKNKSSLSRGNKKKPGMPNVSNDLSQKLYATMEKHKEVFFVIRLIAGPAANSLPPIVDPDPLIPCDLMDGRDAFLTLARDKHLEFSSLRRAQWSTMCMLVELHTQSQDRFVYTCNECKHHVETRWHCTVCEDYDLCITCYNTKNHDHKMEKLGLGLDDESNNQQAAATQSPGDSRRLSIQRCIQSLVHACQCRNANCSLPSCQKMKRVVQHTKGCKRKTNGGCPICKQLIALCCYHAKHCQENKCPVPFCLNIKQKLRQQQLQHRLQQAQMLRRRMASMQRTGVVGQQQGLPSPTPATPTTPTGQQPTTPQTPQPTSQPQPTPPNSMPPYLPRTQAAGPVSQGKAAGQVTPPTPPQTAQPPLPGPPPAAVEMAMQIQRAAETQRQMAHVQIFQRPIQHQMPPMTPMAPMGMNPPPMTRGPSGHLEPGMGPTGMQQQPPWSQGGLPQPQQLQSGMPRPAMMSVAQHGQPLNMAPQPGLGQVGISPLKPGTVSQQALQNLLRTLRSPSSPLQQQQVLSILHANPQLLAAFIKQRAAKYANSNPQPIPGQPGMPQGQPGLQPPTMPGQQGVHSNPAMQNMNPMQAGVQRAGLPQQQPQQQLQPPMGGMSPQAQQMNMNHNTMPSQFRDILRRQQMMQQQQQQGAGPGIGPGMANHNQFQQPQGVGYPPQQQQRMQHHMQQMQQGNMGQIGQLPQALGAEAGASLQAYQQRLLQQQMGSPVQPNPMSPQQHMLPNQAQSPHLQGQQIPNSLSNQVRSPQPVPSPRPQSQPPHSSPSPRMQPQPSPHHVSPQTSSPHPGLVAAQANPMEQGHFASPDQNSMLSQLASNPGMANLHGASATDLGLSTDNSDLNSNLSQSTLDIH

[12] = molecular target: T4, Histone acetyltransferase p300; assay: as §4; design: recommended concentration 1 uM; remark: listed apart in the source
[13] = molecular target: T4, Histone acetyltransferase p300; assay: as §4; design: recommended concentration 1 uM; remark: listed apart in the source
[14] = molecular target: Bromodomain adjacent to zinc finger domain protein 2A (Homo sapiens, UniProt Q9UIF9); assay: Selectivity interaction (BROMOscan (Eurofins)) EUB0002282a BAZ2A; design: recommended concentration 1 uM
[15] = molecular target: Bromodomain adjacent to zinc finger domain protein 2B (Homo sapiens, UniProt Q9UIF8); assay: Selectivity interaction (BROMOscan (Eurofins)) EUB0002282a BAZ2B; design: recommended concentration 1 uM
[16] = molecular target: Peregrin (Homo sapiens, UniProt P55201); assay: Selectivity interaction (BROMOscan (Eurofins)) EUB0002282a BRPF1; design: recommended concentration 1 uM
[17] = molecular target: Transcription initiation factor TFIID subunit 1 (Homo sapiens, UniProt P21675); assay: Selectivity interaction (BROMOscan (Eurofins)) EUB0002282a TAF1; design: recommended concentration 1 uM
[18] = molecular target: T5, Bromodomain-containing protein 9 (Homo sapiens, UniProt Q9H8M2); assay: Selectivity interaction (BROMOscan (Eurofins)) EUB0002282a BRD9; design: recommended concentration 1 uM
T5 sequence (Q9H8M2 whole entry): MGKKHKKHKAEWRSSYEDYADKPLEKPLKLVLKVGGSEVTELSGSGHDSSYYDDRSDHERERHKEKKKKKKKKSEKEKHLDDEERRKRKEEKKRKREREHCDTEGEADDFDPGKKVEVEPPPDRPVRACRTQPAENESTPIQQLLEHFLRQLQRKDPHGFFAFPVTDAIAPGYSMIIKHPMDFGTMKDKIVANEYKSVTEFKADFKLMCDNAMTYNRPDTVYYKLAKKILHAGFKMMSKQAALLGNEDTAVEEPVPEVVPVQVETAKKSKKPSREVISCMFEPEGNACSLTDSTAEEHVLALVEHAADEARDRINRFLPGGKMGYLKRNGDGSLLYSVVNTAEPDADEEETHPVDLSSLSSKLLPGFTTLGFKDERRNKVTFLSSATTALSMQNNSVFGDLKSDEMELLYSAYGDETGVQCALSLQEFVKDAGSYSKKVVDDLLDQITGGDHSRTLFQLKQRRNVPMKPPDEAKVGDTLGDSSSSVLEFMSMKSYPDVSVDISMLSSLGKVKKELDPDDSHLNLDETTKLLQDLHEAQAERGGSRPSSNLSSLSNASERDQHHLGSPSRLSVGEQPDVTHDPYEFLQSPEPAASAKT

[19] = molecular target: Bromodomain testis-specific protein (Homo sapiens, UniProt Q58F21); assay: Selectivity interaction (BROMOscan (Eurofins)) EUB0002282a BRDT; design: recommended concentration 1 uM
[20] = molecular target: T4, Histone acetyltransferase p300; assay: Selectivity interaction (BROMOscan (Eurofins)) EUB0002282a EP300; design: recommended concentration 1 uM
[21] = molecular target: CREB-binding protein (Homo sapiens, UniProt Q92793); assay: Selectivity interaction (BROMOscan (Eurofins)) EUB0002282a CREBBP; design: recommended concentration 1 uM
[22] = molecular target: Chromatin remodeling regulator CECR2 (Homo sapiens, UniProt Q9BXF3); assay: Selectivity interaction (BROMOscan (Eurofins)) EUB0002282a CECR2; design: recommended concentration 1 uM
[23] = molecular target: Oxidized purine nucleoside triphosphate hydrolase (Homo sapiens) (UniProt P36639); assay: Selectivity interaction (Nudix + Nucleotide phosphohydrolase panel (enzymatic assay)) EUB0002332a NUDT1; design: recommended concentration 1 uM; settings: at 100 µM
[24] = molecular target: 5-hydroxytryptamine receptor 1B (Homo sapiens) (UniProt P28222); assay: (§5) Selectivity interaction (SafetyScreen (Eurofins)) EUB0002332a HTR1B; design: recommended concentration 1 uM; settings: at 10 µM
Sequence of 5-hydroxytryptamine receptor 1B (Homo sapiens) (P28222 whole entry): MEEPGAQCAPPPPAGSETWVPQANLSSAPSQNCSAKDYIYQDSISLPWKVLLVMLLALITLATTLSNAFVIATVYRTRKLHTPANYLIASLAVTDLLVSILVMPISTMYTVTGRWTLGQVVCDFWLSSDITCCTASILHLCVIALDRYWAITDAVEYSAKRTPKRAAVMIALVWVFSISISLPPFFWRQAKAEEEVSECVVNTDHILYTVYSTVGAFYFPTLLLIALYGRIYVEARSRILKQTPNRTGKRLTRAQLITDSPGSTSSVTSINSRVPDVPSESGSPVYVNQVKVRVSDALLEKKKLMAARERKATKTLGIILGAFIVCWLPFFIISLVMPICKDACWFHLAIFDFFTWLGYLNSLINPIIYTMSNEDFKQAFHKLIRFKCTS

[25] = molecular target: Sodium-dependent dopamine transporter (Homo sapiens) (UniProt Q01959); assay: Selectivity interaction (SafetyScreen (Eurofins)) EUB0002332a SLC6A3; design: recommended concentration 1 uM; settings: at 10 µM
[26] = molecular target: Sodium-dependent noradrenaline transporter (Homo sapiens) (UniProt P23975); assay: Selectivity interaction (SafetyScreen (Eurofins)) EUB0002332a SLC6A2; design: recommended concentration 1 uM; settings: at 10 µM
Sequence of Sodium-dependent noradrenaline transporter (Homo sapiens) (P23975 whole entry): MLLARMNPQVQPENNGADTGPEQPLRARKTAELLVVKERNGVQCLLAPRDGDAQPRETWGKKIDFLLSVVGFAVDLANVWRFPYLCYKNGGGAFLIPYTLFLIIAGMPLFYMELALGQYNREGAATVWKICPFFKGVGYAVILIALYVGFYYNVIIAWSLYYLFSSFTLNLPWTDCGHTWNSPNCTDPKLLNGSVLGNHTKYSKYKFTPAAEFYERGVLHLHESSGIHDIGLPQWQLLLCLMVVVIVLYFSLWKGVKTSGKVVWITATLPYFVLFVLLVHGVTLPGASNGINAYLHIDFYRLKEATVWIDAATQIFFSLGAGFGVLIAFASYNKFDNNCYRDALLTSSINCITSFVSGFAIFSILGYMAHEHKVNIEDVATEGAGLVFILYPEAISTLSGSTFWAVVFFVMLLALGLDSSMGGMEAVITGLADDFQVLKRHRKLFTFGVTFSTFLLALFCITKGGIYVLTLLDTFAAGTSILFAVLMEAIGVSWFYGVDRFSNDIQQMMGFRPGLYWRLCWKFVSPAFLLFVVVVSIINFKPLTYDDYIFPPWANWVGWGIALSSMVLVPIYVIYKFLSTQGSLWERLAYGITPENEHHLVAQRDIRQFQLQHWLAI

[27] = molecular target: Voltage-gated inwardly rectifying potassium channel KCNH2 (Homo sapiens, UniProt Q12809); assay: Selectivity interaction (SafetyScreen (Eurofins)) EUB0002332a KCNH2; design: recommended concentration 1 uM; settings: at 10 µM
[28] = molecular target: 5-hydroxytryptamine receptor 1B (Homo sapiens) (UniProt P28222); assay: as §5; design: recommended concentration 1 uM; settings: at 10 µM; remark: listed apart in the source
[29] = molecular target: Muscarinic acetylcholine receptor M1 (Homo sapiens, UniProt P11229); assay: Selectivity interaction (Membrane binding assay) EUB0002488aCl CHRM1; design: recommended concentration 1 uM
[30] = molecular target: cGMP-inhibited 3',5'-cyclic phosphodiesterase 3B (Homo sapiens, UniProt Q13370); assay: Selectivity interaction (Enzymatic assay) EUB0002598a PDE3B; design: recommended concentration 1 uM
[31] = molecular target: P2X purinoceptor 3 (Homo sapiens, UniProt P56373); assay: Selectivity interaction (Patch-clamp recording assay) EUB0002673aCl P2RX3; design: recommended concentration 1 uM
[32] = molecular target: T6, Histone deacetylase 8 (Homo sapiens, UniProt Q9BY41)
T6 sequence (Q9BY41 whole entry): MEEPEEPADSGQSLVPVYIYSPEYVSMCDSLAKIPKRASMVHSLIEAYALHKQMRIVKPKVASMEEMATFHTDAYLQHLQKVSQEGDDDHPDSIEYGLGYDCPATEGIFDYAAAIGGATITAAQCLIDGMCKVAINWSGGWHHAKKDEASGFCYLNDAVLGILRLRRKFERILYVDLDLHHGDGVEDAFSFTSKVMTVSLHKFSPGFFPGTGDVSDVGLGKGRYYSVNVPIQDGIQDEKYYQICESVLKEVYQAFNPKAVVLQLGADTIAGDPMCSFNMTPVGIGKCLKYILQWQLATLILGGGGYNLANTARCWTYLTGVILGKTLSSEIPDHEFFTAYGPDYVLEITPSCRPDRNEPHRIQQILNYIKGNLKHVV

[33] = molecular target: T6, Histone deacetylase 8; remark: listed apart in the source
[34] = molecular target: T6, Histone deacetylase 8; remark: listed apart in the source

`C#CCNC(=O)[C@H](CO)NC(=O)[C@H](CCCCN(CC)CC)NC(=O)[C@H](NC(=O)[C@@H](NC(=O)c1ccc(Oc2ccccc2)cc1)C1CCCC1)[C@@H](C)CC` ({Benzoyl(4-OPh)}-[Gly(cPent)][d(aIle)][Lys(Et2)]S-{NH(propargyl)}) gave a Kd [1] of 4600 nM, a Kd [2] of 4600 nM and a Kd [3] greater than 16000 nM.
Molecule `Cn1nc(C(C)(C)C)cc1C(=O)NC(Cc1cccc(Cl)c1)C(=O)NCC#N` (centres undefined) has a Ki [4] of 850 nM.
`N=C(N)NC(=O)c1cnn(-c2cccc3ncccc23)c1C1CC1` gave a Ki [5] of 238 nM, a Ki [6] of 60 nM and a Ki [7] of 213 nM. It also gave a Ki [8] of 213 nM, a Ki [9] of 213 nM and an inhibition [10] of 62%.
`CCCOc1ccc(CCc2nc3cc(-c4c(C)noc4C)ccc3n2CCN2CCOCC2)cc1` gave an IC50 [11] of 363 nM, an IC50 [12] of 363 nM and an IC50 [13] of 363 nM.
`Cc1cc(-c2ccc3nc(C4CCOCC4)n(CCOC(F)(F)F)c3c2)cn(C)c1=O` gave a Kd [14] of 140 nM, a Kd [15] of 190 nM and a Kd [16] of 100 nM. The Kd [17] was 110 nM, the Kd [18] was 64 nM and the Kd [19] was 25 nM. The Kd [20] was 25 nM, the Kd [21] was 23 nM and the Kd [22] was 38 nM.
With `Cn1c(=O)c2c(nc(N3CCNCC3)n2Cc2nnc(-c3ccc(Cl)c(Cl)c3)o2)n(C)c1=O` the Enzyme activity [23] was less than 20%, the Inhibition of control [24] was greater than 50% and the Inhibition of control [25] was 50%. For the same molecule, the Inhibition of control [26] was greater than 50%, the Inhibition of control [27] was greater than 50% and the Inhibition of control [28] was greater than 50%.
Work on `CN1[C@@H]2CC[C@H]1C[C@@H](OC(c1ccc(F)cc1)c1ccc(F)cc1)C2` yielded a Ki [29] of 11.6 nM.
In the case of `CC(C)C(=O)c1c(C(C)C)nn2ccccc12` [IBUDILAST], the IC50 [30] is reported as 2700 nM.
For `CCCCOc1c(OC)cc(C(=O)NCC2(N(C)C)CCOCC2)cc1OC`, the IC50 [31] was 870 nM.
In the case of `CN(C)Cc1ccc(S(=O)(=O)n2ccc(/C=C/C(=O)NO)c2)cc1`, the IC50 [32] is reported as 877 nM, the IC50 [33] is reported as 877 nM and the IC50 [34] is reported as 877 nM.
